Measured values taken from EP0551675A1, “Oral hygiene compositions containing antiplaque agents” (UNILEVER N.V., priority 1991, dated 1993).
Values after ≈ are worked out from the molar mass of the structure shown. Like-named read-outs stand apart in the source and are kept apart here.

Columns and labels:
Actinomyces naeslundii = test: Antimicrobial activity determination (MIC); format: cell-based; conditions: for MIC: read-out: Minimimum Inhibitory Concentrations
Description: (§1) The antimicrobial activity of the targeted agents was assessed by determining the minimum inhibitory concentration (MIC). Pure cultures of various strains of oral bacterial species as indicated in Table 3 were combined with serial dilutions of the targeted agents in beef heart infusion broth (BHI); starting bacterial concentrations were approximately 1.0 x 10E6 colony forming units (CFU) per ml. The mixtures were incubated aerobically at 37 degrees C and the optical density (540 nm, path length 1cm) of the cultures was measured at 0.0, 24.0 and 48.0 hr using Bausch and Lomb Spec 20 variable wavelength spectrophotometer.

Candida albicans = test: Antimicrobial activity determination (MIC); format: cell-based; conditions: for MIC: read-out: Minimimum Inhibitory Concentrations
Description: as §1

Neisseria subflava = test: Antimicrobial activity determination (MIC); format: cell-based; conditions: for MIC: read-out: Minimimum Inhibitory Concentrations
Description: as §1

Prevotella intermedius = test: Antimicrobial activity determination (MIC); format: cell-based; conditions: read-out: Minimimum Inhibitory Concentrations
Description: as §1

Streptococcus sanguis = test: Antimicrobial activity determination (MIC); format: cell-based; conditions: for MIC: Streptococcus, read-out: Minimimum Inhibitory Concentrations
Description: as §1

Streptococcus sobrinus = test: Antimicrobial activity determination (MIC); format: cell-based; conditions: for MIC: read-out: Minimimum Inhibitory Concentrations
Description: as §1

Veillonella dispar = test: Antimicrobial activity determination (MIC); format: cell-based; conditions: read-out: Minimimum Inhibitory Concentrations
Description: as §1

[1] = Krafft point of a 1% dispersion in water; format: physicochemical; conditions: 1% dispersion of the surfactant in water
Description: The temperature at and above which surfactants begin to form micelles instead of precipitates is referred to as Krafft point (Tk) and at this temperature the solubility of a surfactant becomes equal to its CMC.
Krafft point was measured by preparing a 1% dispersion of the surfactant in water. If the surfactant was soluble at room temperature, the solution was cooled to 0°C. […] If it precipitated out, the solution was slowly warmed with stirring in a water bath. The temperature at which the precipitate dissolved was determined to be the Krafft point.
If the Krafft point was above room temperature, the solution was first heated rapidly to dissolve all the surfactant. It was then cooled until precipitation occurred, and was then slowly warmed to determine the Krafft point described above.

[2] = Foam height, Ross-Miles method; format: physicochemical; conditions: 45°C, water with 120 ppm hardness
Description: Since most of the foaming data on surfactants is typically obtained by the Ross-Miles method (Ross, J. and Miles, G.D., am. Soc. for Testing Material Method D1173-53 Philadelphia, PA. (1953); Oil & Soap (1958) 62:1260) the foaming ability of these surfactants was also acquired using this method.
In the Ross-Miles method, 200 mL of a solution of surfactant contained in a pipette of specified dimensions with a 2.9-mm-i.d. orifice is allowed to fall 90 cm onto 50 mL of the same solution contained in a cylindrical vessel maintained at a given temperature (often 60°C) by means of a water jacket. The height of the foam produced in the cylindrical vessel is read immediately after all the solution has run out of the pipette (initial foam height) and then again after a given amount of time (generally, 5 min).
Using this method, the foam production (measured initially) and foam stability (the height after 10 minutes) are reported. […] The foam height is represented in millimeters (mm).

[3] = test system: several species of oral bacteria; test: MIC assays on several species of oral bacteria (stated in words); format: cell-based; conditions: result in words
Description: as §1

Porphyromonas gingivalis = test: Antimicrobial activity determination (MIC); format: cell-based; conditions: read-out: Minimimum Inhibitory Concentrations
Description: as §1

[4] = test system: Actinomyces naeslundii PK29 and Streptococcus sanguis G9B; test: Bacterial coaggregation assay; format: cell-based; conditions: for inhibition of coaggregation between A. naeslundii and S. sanguis: result in words
Description: A bacterial coaggregation assay was used to determine the ability of various amino sugars to interfere with lectin-mediated binding among various bacterial species. For instance, many Actinomyces naeslundii strains coaggregate with Streptococcus sanguis as a result of binding between a lectin produced by the A. naeslundii cells and β-galactose-containing structures on the surface of the streptococci. For the present assay, A. naeslundii PK29 and S. sanguis G9B were cultured overnight in a medium containing 2.5% tryptone, 1.5% yeast extract, 0.1% magnesium sulfate, and 1.0% fructose. The cells were then washed twice in a 1.0 mM potassium phosphate buffer (pH = 6.8) containing 1.0 mM calcium chloride, 0.1 mM magnesium chloride, and 50.0 mM potassium chloride (buffered KCl), after which they were resuspended in buffered KCl at an optical density (540 nm) of 1.5. The coaggregations were performed by combining 0.5 ml of each bacterial suspension with 0.2 ml of 5.0% bovine serum albumin (BSA) and 0.8 ml of an appropriate concentration of a targeted anti-plaque agent in 3.0 ml capped polystyrene cuvettes. The cuvettes (path length 1 cm) were gently inverted at room temperature, and the optical density (540 nm) was determined as a function of time (2.0 min intervals; 20 min). The instrument employed to measure optical density was a variable wavelength spectrophotometer (Gilson Response^(R) Spectrophotometer, bought from Gilson).
The activity of a tested compound was expressed as % inhibition relative to buffer controls (i.e., % inhibition = [1 - change in optical density (inhibitor)]/ change in optical density [control]) x 100 [formula] .
The ability of various aldobionamide compounds (prepared as described in Example 1) to target to β-galactose-specific binding proteins on A. naeslundii and thus to interfere with coaggregation interactions between A. naeslundii and S. sanquis was investigated. Coaggregation of Actinomyces naeslundii PK29 and Streptococcus sanguis G9B was performed as described in the Methods section (Bacterial Coaggregation Assay) above. % Inhibition was calculated as 1.0 - the change in optical density (540 nm) in the sample containing compound tested/the change in optical density in the coaggregation buffer control. The inhibitory activity of the antiplaque agents within the scope of the invention was compared to the inhibitory activity of lactobionic acid and N-alkyl gluconamides, which are not within the scope of the invention. The gluconamides were prepared analogously to N-alkyl lactobionamides from glucono-δ-lactone (Sigma Chemicals) and the requisite aliphatic amine.

[5] = BHI broth, aerobic, 37 degrees C
[6] = Prevotella intermedius, BHI broth, aerobic, 37 degrees C
[7] = Streptococcus sanguis, BHI broth, aerobic, 37 degrees C

Compound	MIC (Actinomyces naeslundii; [5]) [µg/mL]	MIC (Candida albicans; [5]) [µg/mL]	MIC (Neisseria subflava; [5]) [µg/mL]	MIC (Prevotella intermedius; [6]) [µg/mL]	MIC (Streptococcus sanguis; [7]) [µg/mL]	MIC (Streptococcus sobrinus; [5]) [µg/mL]	MIC (Veillonella dispar; [5]) [µg/mL]	further results
CCCCCCCCCCNC(=O)[C@H](O)[C@@H](O)[C@H](O[C@@H]1O[C@H](CO)[C@H](O)[C@H](O)[C@H]1O)[C@H](O)CO [Decyl lactobionamide, N-decyl lactobionamide]	> 500	500 (≈ 1000 µM)	500 (≈ 1000 µM)	> 500	> 500	> 500	500 (≈ 1000 µM)	Krafft Point [1]: 0 °C; Initial Height ([2]; foam production, measured initially): 150 mm; After 10 Minutes ([2]; foam stability, height after 10 minutes): 5 mm
CCCCCCCCCCNC(=O)[C@H](O)[C@@H](O)[C@H](O)[C@H](O)CO [Decylgluconamide, reference compound]	> 5000	–	–	–	> 5000	> 5000	–	–
O=C(O)[C@H](O)[C@@H](O)[C@H](O[C@@H]1O[C@H](CO)[C@H](O)[C@H](O)[C@H]1O)[C@H](O)CO [Dodecyl ammonium lactobionate, Dodecylammonium lactobionate]	–	–	125	16	–	–	16	Minimimum Inhibitory Concentrations (Actinomyces naeslundii; [5]): 0.003 % w/v; Minimimum Inhibitory Concentrations (Streptococcus sanguis; [7]): 0.006 % w/v; Minimimum Inhibitory Concentrations (Streptococcus sobrinus; [5]): 0.003 % w/v; anti-microbial activity [3]: significant anti-microbial activity
CCCCCCCCCCCCOC(=O)CCNC(=O)[C@H](O)[C@@H](O)[C@H](O[C@@H]1O[C@H](CO)[C@H](O)[C@H](O)[C@H]1O)[C@H](O)CO [Dodecyl-B-alanyl-lactobionamide, N-lactobionyl dodecyl β-alanate]	125 (≈ 209 µM)	500 (≈ 837 µM)	500 (≈ 837 µM)	–	125 (≈ 209 µM)	1000 (≈ 1670 µM)	–	–
CCCCCCCCCCCCCCCCNC(=O)[C@H](O)[C@@H](O)[C@H](O[C@@H]1O[C@H](CO)[C@H](O)[C@H](O)[C@H]1O)[C@H](O)CO [Hexadecyl lactobionamide, N-hexadecyl lactobionamide]	60 (≈ 103 µM)	1000 (≈ 1720 µM)	1000 (≈ 1720 µM)	> 500	125 (≈ 215 µM)	1000 (≈ 1720 µM)	> 500	MIC (Porphyromonas gingivalis; [5]): > 500 µg/mL
O=C(O)[C@H](O)[C@@H](O)[C@H](O[C@@H]1O[C@H](CO)[C@H](O)[C@H](O)[C@H]1O)[C@H](O)CO [Lactobionic acid, reference compound]	–	–	–	–	–	–	–	Minimimum Inhibitory Concentrations (Actinomyces naeslundii; [5]): >0.5 % w/v; Minimimum Inhibitory Concentrations (Streptococcus sanguis; [7]): >0.5 % w/v; Minimimum Inhibitory Concentrations (Streptococcus sobrinus; [5]): >0.5 % w/v
CCCCCCCCNC(=O)[C@H](O)[C@@H](O)[C@H](O[C@@H]1O[C@H](CO)[C@H](O)[C@H](O)[C@H]1O)[C@H](O)CO [Octyl lactobionamide, N-octyl lactobionamide]	> 5000	> 1000	> 1000	> 1000	> 1000	> 5000	> 1000	MIC (Porphyromonas gingivalis; [5]): > 1000 µg/mL
CCCCCNC(=O)[C@H](O)[C@@H](O)[C@H](O[C@@H]1O[C@H](CO)[C@H](O)[C@H](O)[C@H]1O)[C@H](O)CO [Pentyl lactobionmamide, N-pentyl lactobionamide]	> 5000	> 1000	> 1000	> 1000	> 1000	> 5000	> 1000	MIC (Porphyromonas gingivalis; [5]): > 1000 µg/mL
CCCNC(=O)[C@H](O)[C@@H](O)[C@H](O[C@@H]1O[C@H](CO)[C@H](O)[C@H](O)[C@H]1O)[C@H](O)CO [Propyl lactobionamide, N-propyl lactobionamide]	> 5000	> 1000	> 1000	> 1000	> 1000	> 5000	> 1000	MIC (Porphyromonas gingivalis; [5]): > 1000 µg/mL
CCCCCCCCCCCCOS(=O)(=O)[O-].[Na+] [Sodium dodecyl sulfate, reference compound]	–	–	–	–	–	–	–	MIC (Actinomyces naeslundii): 8 µg/mL; MIC (Candida albicans): 60 µg/mL; MIC (Neisseria subflava): 8 µg/mL; MIC (Porphyromonas gingivalis): 2 µg/mL; MIC (Prevotella intermedius; Prevotella): 16 µg/mL; MIC (Streptococcus sanguis): 15 µg/mL; MIC (Streptococcus sobrinus): 60 µg/mL; MIC (Veillonella dispar): 60 µg/mL
O=C(O)[C@H](O)[C@@H](O)[C@H](O[C@@H]1O[C@H](CO)[C@H](O)[C@H](O)[C@H]1O)[C@H](O)CO [Tetradecyl ammonium Lactobionate, Tetradecylammonium lactobionate]	–	120	–	–	–	–	–	inhibition at 500 µM ([4]; Actinomyces naeslundii, 0.5 mMol/L, coaggregation of A. naeslundii PK29 and S. sanguis G9B, relative to buffer control, read-out: Percent Inhibition): 0%; inhibition at 700 µM ([4]; Actinomyces naeslundii, 0.7 mMol/L, coaggregation of A. naeslundii PK29 and S. sanguis G9B, relative to buffer control, read-out: Percent Inhibition): 11%; inhibition at 900 µM ([4]; Actinomyces naeslundii, 0.9 mMol/L, coaggregation of A. naeslundii PK29 and S. sanguis G9B, relative to buffer control, read-out: Percent Inhibition): 66%; inhibition at 1400 µM ([4]; Actinomyces naeslundii, 1.4 mMol/L, coaggregation of A. naeslundii PK29 and S. sanguis G9B, relative to buffer control, read-out: Percent Inhibition): 99%; inhibition at 1800 µM ([4]; Actinomyces naeslundii, 1.8 mMol/L, coaggregation of A. naeslundii PK29 and S. sanguis G9B, relative to buffer control, read-out: Percent Inhibition): 100%; inhibition of coaggregation between A. naeslundii and S. sanguis [4]: effective inhibitor of coaggregation; Minimimum Inhibitory Concentrations (Actinomyces naeslundii; [5]): 0.006 % w/v; Minimimum Inhibitory Concentrations (Streptococcus sanguis; [7]): 0.0016 % w/v; Minimimum Inhibitory Concentrations (Streptococcus sobrinus; [5]): 0.0125 % w/v; anti-microbial activity [3]: significant anti-microbial activity
CCCCCCCCCCCCCCNC(=O)[C@H](O)[C@@H](O)[C@H](O[C@@H]1O[C@H](CO)[C@H](O)[C@H](O)[C@H]1O)[C@H](O)CO [Tetradecyl lactobionamide, N-tetradecyl lactobionamide]	15 (≈ 27.1 µM)	30 (≈ 54.2 µM)	60 (≈ 108 µM)	8 (≈ 14.4 µM)	30 (≈ 54.2 µM)	125 (≈ 226 µM)	< 8	Krafft Point [1]: 46 °C
CCCCCCCCCCCCCCN.Cl [tetradecyl ammonium hydrochloride, reference compound]	–	–	–	–	–	–	–	inhibition of coaggregation between A. naeslundii and S. sanguis [4]: inhibited coaggregation; anti-microbial activity [3]: had antibacterial activity
Tetradecyl-glycyl-lactobionamide	–	–	–	–	–	–	–	Minimimum Inhibitory Concentrations (Actinomyces naeslundii; [5]): 0.0008 % w/v; Minimimum Inhibitory Concentrations (Candida albicans; [5]): 0.05 % w/v; Minimimum Inhibitory Concentrations (Neisseria subflava; [5]): 0.05 % w/v; Minimimum Inhibitory Concentrations (Streptococcus sanguis; [7]): 0.003 % w/v; Minimimum Inhibitory Concentrations (Streptococcus sobrinus; [5]): 0.05 % w/v
